From article PMC4037324 (Drug metabolism letters, 2012)

Columns and labels:
[1] = target: T1, cytochrome P450 2D6 (CYP2D6) (Homo sapiens, UniProt P10635); assay: UV-vis spectral binding titration
Target sequence in this assay (P10635 whole entry): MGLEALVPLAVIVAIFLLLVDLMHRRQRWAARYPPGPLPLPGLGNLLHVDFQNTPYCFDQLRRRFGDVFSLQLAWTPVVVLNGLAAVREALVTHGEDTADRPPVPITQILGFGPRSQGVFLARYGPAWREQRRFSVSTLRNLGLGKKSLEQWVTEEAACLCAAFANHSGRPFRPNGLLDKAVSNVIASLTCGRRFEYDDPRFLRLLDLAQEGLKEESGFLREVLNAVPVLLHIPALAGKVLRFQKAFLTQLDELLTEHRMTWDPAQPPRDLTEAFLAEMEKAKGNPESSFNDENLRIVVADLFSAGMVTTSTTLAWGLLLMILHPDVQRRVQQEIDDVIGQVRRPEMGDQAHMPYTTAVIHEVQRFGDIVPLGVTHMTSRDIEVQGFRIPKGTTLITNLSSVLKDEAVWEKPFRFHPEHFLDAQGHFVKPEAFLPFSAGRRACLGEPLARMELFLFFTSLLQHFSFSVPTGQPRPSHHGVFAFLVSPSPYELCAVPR

[2] = target: T1, cytochrome P450 2D6 (CYP2D6); assay: NADPH-dependent inactivation of bufuralol […]'-hydroxylation in CYP2D6 Supersomes; format: cell-based
Target sequence in this assay (P16435 2-677): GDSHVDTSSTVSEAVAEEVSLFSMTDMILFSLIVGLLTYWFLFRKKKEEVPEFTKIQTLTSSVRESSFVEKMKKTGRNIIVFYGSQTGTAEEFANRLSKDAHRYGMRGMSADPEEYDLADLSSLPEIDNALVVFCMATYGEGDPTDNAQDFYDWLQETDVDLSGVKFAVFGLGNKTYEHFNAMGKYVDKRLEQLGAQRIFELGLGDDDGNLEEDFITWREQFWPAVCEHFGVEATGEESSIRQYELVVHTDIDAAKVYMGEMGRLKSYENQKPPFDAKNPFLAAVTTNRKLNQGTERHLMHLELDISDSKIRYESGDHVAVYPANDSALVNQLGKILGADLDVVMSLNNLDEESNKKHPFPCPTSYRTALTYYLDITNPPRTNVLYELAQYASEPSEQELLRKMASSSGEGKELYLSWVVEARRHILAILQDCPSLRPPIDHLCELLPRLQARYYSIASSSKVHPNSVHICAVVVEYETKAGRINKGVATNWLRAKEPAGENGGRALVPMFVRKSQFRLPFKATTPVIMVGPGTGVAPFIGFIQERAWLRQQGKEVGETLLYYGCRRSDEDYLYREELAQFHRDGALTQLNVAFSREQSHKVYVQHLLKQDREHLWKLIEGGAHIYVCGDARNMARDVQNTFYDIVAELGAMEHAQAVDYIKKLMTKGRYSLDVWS
Target sequence in this assay (P10635 whole entry): as the sequence (P10635 whole entry) above

SMILES | Kd [1] [µM] | partition ratio [2]
CCc1nc(C)c(CN2CCN(c3cc(C(F)(F)F)ccn3)CC2)[nH]1 [EMTPP] | 29.8 ± 3.04 | 
CNC(C)Cc1ccc2c(c1)OCO2 (centres unmarked) [MDMA] |  | 91
